We go through two compounds from US20060111305A1, “Metabolites of certain [1,4]diazepino[6,7,1-ij]quinoline derivatives and methods of preparation and use thereof” (Wyeth, priority 2004, published 2006).

Where “and” joins values, the source holds several entries; their conditions need not be identical. Equal values may be shown once.

The test system of data set [1] is UGT (UDPGA-dependent glucuronidation). Kind of data set: Incubation of [14C]DCDQ with human liver microsomes (Km values, metabolite formation). Format: in vitro ADME. The settings on record: pH 7.4; 0.5 mg/mL human liver microsomes, [14C]DCDQ 0.5-100 μM, UDPGA, 10 min. As to the method:
[^14C]DCDQ was mixed with non-radiolabeled DCDQ (1:3 or 1:5) in the incubations. Microsomal incubations consisted of [^14C]DCDQ, magnesium chloride (10 mM) and liver microsomes incubated in 0.5 mL of 0.1 M potassium phosphate buffer, pH 7.4. [^14C]DCDQ (20 μL) in water was added to the incubation tubes containing buffer, magnesium chloride solution and microsomes. After mixing, the tubes were pre-incubated for 2 minutes in a shaking water bath at 37° C. The reactions were initiated by the addition of UDPGA or the NADPH regenerating system. UDPGA was added to incubations as a 50 μL aliquot of a 20 mM solution in water, to give a final concentration of 2 mM. An NADPH regenerating system (30 μL) was added to incubations to evaluate CYP450-mediated metabolism. The NADPH regenerating system consisted of glucose-6-phosphate (2 mg/mL), glucose-6-phosphate dehydrogenase (0.8 units/mL) and NADP^+ (2 mg/mL). Control incubations were conducted under the same conditions, but without the NADPH generating system, UDPGA or microsomes. All incubations were performed in duplicate. Incubations were stopped by the addition of 0.5 mL ice-cold methanol. Samples were vortex-mixed. Denatured proteins were separated by centrifugation at 4300 rpm and 4° C. for 10 minutes (Model T21 super centrifuge, Sorvall). The protein pellets were extracted with 0.5 mL of methanol. The supernatant was combined for each sample, mixed and evaporated to a volume of about 0.3 mL under a nitrogen stream in a Zymark TurboVap LV evaporator (Caliper Life Science, Hopkinton, Mass.). The concentrated sample was centrifuged and aliquots were radioassayed and analyzed by HPLC. This method recovered an average of 92.1% of the radioactivity from the reaction mixture.
Initial rate conditions were determined for DCDQ metabolism in incubations with human liver microsomes in the presence of NADPH or UDPGA. Incubations for the time course study contained 20 μM of [^14C]DCDQ and 0.5 mg/mL of microsomal proteins, and were incubated at 37° C. with mild shaking for 0, 5, 10, 20, 30, 40, 50 and 60 minutes. The protein dependence study was conducted with 20 μM of [^14C]DCDQ incubated for 20 minutes with 0, 0.1, 0.25, 0.5, 0.75 and 1.0 mg/mL of microsomal proteins.
The Km values were determined with 0.5 mg/mL of human liver microsomes incubated with [^14C]DCDQ for 20 minutes with the NADPH regenerating system or for 10 minutes with UDPGA. [^14C]DCDQ concentrations used were 0.5,1, 5, 10, 25, 50, 75 and 100 μM.
To evaluate species differences in cytochrome P450- and UGT-mediated metabolism, [^14C]DCDQ was incubated for 20 minutes with 0.5 mg/mL liver microsomal proteins from mice, rats, dogs or humans in the presence of the NADPH regenerating system or UDPGA. The assay conditions were the same as described above, and DCDQ concentrations were 12 μM and 56 μM for cytochrome P450- and UGT-mediated metabolism, respectively.
A Waters model 2690 HPLC system (Waters Corp., Milford, Mass.) with a built-in autosampler was used for analysis. Separations were accomplished on a Phenomenex Luna C18(2) column (2×150 mm, 5 μm) (Phenomenex, Torrance, Calif.) coupled with a filter (4×2 mm) cartridge. A variable wavelength UV detector set to monitor 250 nm and Flo-One β Model A525 radioactivity flow detector (Perkin Elmer) with a 250 μL LQTR flow cell were used for data acquisition. The flow rate of Ultima Flow M scintillation fluid was 1 mL/min, providing a mixing ratio of scintillation cocktail to mobile phase of 5:1. The sample chamber in the autosampler was maintained at 4° C., while the column was at ambient temperature of about 20° C. The mobile phase consisted of 10 mM ammonium acetate, pH 4.5 (A) and methanol (B) and was delivered at 0.2 mL/min. The linear gradient conditions were as follows: […]
Background: Liver microsomes are a subcellular fraction often used to study metabolism.

A short description of data set [2]: Rat blood and plasma radioactivity concentrations after single oral 5 mg/kg [14C]DCDQ. The settings on record: for Blood concentration of radioactivity, individuals / Plasma concentration of radioactivity, individuals: 5 mg/kg. Format: in vivo, Sprague-Dawley rats. As to the method:
Dose preparation, animal dosing, and specimen collection were performed at Wyeth Research, Collegeville, Pa. The dose vehicle contained 2% (w/w) Tween 80 and 0.5% methylcellulose in water. […] Male rats weighing from 318 to 345 grams and female rats weighing from 227 to 255 grams at the time of dosing were purchased from Charles River Laboratories, Wilmington, Mass. Non-fasted rats were given a single 5 mg/kg (˜300 μCi/kg) dose of DCDQ at a volume of 2.5 mL/kg via intragastric gavage. Animals were provided Purina rat chow and water ad libitum, and were kept individually in metabolism cages. Male rats were sacrificed at 2, 4, 8 and 24 hour after dose administration. Female rats were sacrificed at 2 and 8 hour after dose administration. At sacrifice, blood samples were collected by cardiac puncture into tubes containing EDTA as the anticoagulant and placing them on ice. Aliquots of 50 μL were removed for combustion and determination of radioactivity content. Plasma was immediately obtained from the remaining blood by centrifugation at 4° C. Brains were excised after perfusion with 50 mL of chilled sterile saline. Urine samples were collected on dry ice at intervals of 0-8 and 8-24 hour post-dosing. Feces were collected at intervals of 0-8 and 8-24 hr post-dosing at room temperature and were homogenized as described previously. The biological specimens and aliquots of the dosing solution at pre- and post-dose were stored at approximately −70° C. until analyzed. Plasma (20 μL) and urine (50 μL) aliquots were analyzed for radioactivity concentrations. Radioactivity determinations of dose, plasma and urine were made with a Tri-Carb Model 3100 TR/LL liquid scintillation counter (LSC) (Perkin Elmer) using 10 mL of Ultima Gold as the scintillation fluid. […] Blood aliquots (50 μL), brain homogenates (0.1 gram) and fecal homogenates (0.2 gram) were placed on Combusto-cones with Combusto-pads and combusted. A model 307 Tri-Carb Sample Oxidizer, equipped with an Oximate-80 Robotic Automatic Sampler (Perkin Elmer), was used for combustion. The liberated ^14CO2 was trapped with Carbo-Sorb E carbon dioxide absorber, mixed with PermaFluor® E+ liquid scintillation cocktail, and counted in a Tri-Carb Model 3100 TR/LL liquid scintillation counter (Perkin Elmer). The oxidation efficiency of the oxidizer was 98.2%.

As for `O=C(O)[C@H]1O[C@@H](OC(=O)N2CCN3C[C@@H]4CCC[C@@H]4c4cccc(c43)C2)[C@H](O)[C@@H](O)[C@@H]1O` [Metabolite M6, carbamoyl glucuronide of DCDQ], the Km (in general, the concentration of substrate that gives half-maximal velocity) at 10 min in data set [1] came out at 56.1 µM.
For the compound `c1cc2c3c(c1)[C@H]1CCC[C@H]1CN3CCNC2` [[^14C]DCDQ], the “Blood concentration of radioactivity, Mean ± SD” value in data set [2] (female rats, 2 hr) came out at 697 ± 219 ng equivalents/mL; in data set [2] (female rats, 8 hr), 307 ± 68.4 ng equivalents/mL; in data set [2] (male rats, 2 hr), 706 ± 158 ng equivalents/mL; in data set [2] (male rats, 4 hr), 704 ± 18.7 ng equivalents/mL; in data set [2] (male rats, 8 hr), 525 ± 45.3 ng equivalents/mL; in data set [2] (male rats, 24 hr), 68.0 ± 10.0 ng equivalents/mL. Besides, the “Plasma concentration of radioactivity, Mean ± SD” value amounted to 658 ± 189 ng equivalents/mL in data set [2] (female rats, 2 hr); 338 ± 60.7 ng equivalents/mL in data set [2] (female rats, 8 hr); 632 ± 144 ng equivalents/mL in data set [2] (male rats, 2 hr); 659 ± 16.5 ng equivalents/mL in data set [2] (male rats, 4 hr); 465 ± 43.1 ng equivalents/mL in data set [2] (male rats, 8 hr); 46.9 ± 8.30 ng equivalents/mL in data set [2] (male rats, 24 hr). In addition, the “Blood concentration of radioactivity, individuals” value in data set [2] (female rats, 2 hr) was 661 ng equivalents/mL and 932 ng equivalents/mL and 499 ng equivalents/mL; in data set [2] (female rats, 8 hr), 413 ng equivalents/mL and 292 ng equivalents/mL and 406 ng equivalents/mL; in data set [2] (male rats, 2 hr), 606 ng equivalents/mL and 624 ng equivalents/mL and 888 ng equivalents/mL; in data set [2] (male rats, 4 hr), 698 ng equivalents/mL and 725 ng equivalents/mL and 689 ng equivalents/mL; in data set [2] (male rats, 8 hr) it was 538 ng equivalents/mL and 475 ng equivalents/mL and 562 ng equivalents/mL; in data set [2] (male rats, 24 hr), 66.5 ng equivalents/mL and 58.9 ng equivalents/mL and 78.7 ng equivalents/mL. Moreover, the “Plasma concentration of radioactivity, individuals” value is 635 ng equivalents/mL and 857 ng equivalents/mL and 481 ng equivalents/mL in data set [2] (female rats, 2 hr); 362 ng equivalents/mL and 269 ng equivalents/mL and 383 ng equivalents/mL in data set [2] (female rats, 8 hr); 567 ng equivalents/mL and 531 ng equivalents/mL and 797 ng equivalents/mL in data set [2] (male rats, 2 hr); 678 ng equivalents/mL and 652 ng equivalents/mL and 647 ng equivalents/mL in data set [2] (male rats, 4 hr); 487 ng equivalents/mL and 415 ng equivalents/mL and 492 ng equivalents/mL in data set [2] (male rats, 8 hr); 50.5 ng equivalents/mL and 37.4 ng equivalents/mL and 52.8 ng equivalents/mL in data set [2] (male rats, 24 hr).
